The test system of one experiment is EG7-OVA tumor cells. Kind of experiment: Therapeutic effect of ZEBRA CPP truncation-based vaccines in the EG.7-OVA s.c. model. The note with it: 10 nmol ZxxOVACD8CD4 and 20 μg MPLA s.c. at d5, d13 and d21 after tumor implantation. In kind it is in vivo, C57BL/6 mice. Here is the method:
C57BL/6 mice were implanted s.c. with 3×10^5 EG7-OVA tumor cells in the left flank and vaccinated three times (d5, d13 and d21) by s.c. injection of 10nmoles of Z-truncOVACD8CD4 peptides and 20 μg of MPLA in the right flank. Tumor size was measured with a caliper. […] B, D and F: survival curve of 7 mice per group. Median survival is indicated on the graph (m.s.). *, p<0.05; **, p<0.01; ***, p<0.001; ****, p<0.0001 (Log-Rang test).
To investigate the effects of different ZEBRA CPP truncation-based vaccines on tumor growth and survival, the effects of the constructs Z13OVACD8CD4, Z14OVACD8CD4, Z15OVACD8CD4 and Z18OVACD8CD4 (as described in Examples 4 and 6) were investigated in the EG.7-OVA s.c. model. On d0, C57BL/6 mice were implanted s.c. with 3×10^5 EG7-OVA tumor cells in the left flank and assigned to five different groups (control, Z13OVACD8CD4, Z14OVACD8CD4, Z15OVACD8CD4 and Z18OVACD8CD4). Mice were vaccinated three times (namely, at d5, d13 and d21 after tumor implantation) by s.c. injection of either 10 nmol of Z13OVACD8CD4, Z14OVACD8CD4, Z15OVACD8CD4 or Z18OVACD8CD4 and 20μg of MPLA in the right flank. Tumor size was measured with a caliper.

Experiment [1] deals with IFN-γ-producing OVA323-339-specific CD4 T cells. Kind of experiment: Vaccination with ZEBRA CPP truncation constructs plus TLR agonist adjuvant, IFN-γ Elispot on spleen cells, CD4. In kind it is in vivo, mice. The procedure: Mice were vaccinated three times (wk0, wk2 and wk9) by s.c. injection (right flank) of 10 nmoles of OVACD8CD4 (the cargo without Zebra CPP truncation), Z13OVACD8CD4, Z14OVACD8CD4, Z15OVACD8CD4, Z18OVACD8CD4 and i.m. injection of 50 μg of Hiltonol (right hind leg). One week after the last vaccination, Elispot assay was performed on spleen cells for detecting IFN-y-producing OVA257-264-specific CD8 T cells (A) and OVA323-339-specific CD4 T cells (B). *, p<0.05; **, p<0.01.
Mice were vaccinated three times (wk0, wk2 and wk9) by s.c. injection (right flank) of 10 nmoles of OVACD8CD4 (the cargo without Zebra CPP truncation), Z13OVACD8CD4, Z14OVACD8CD4, Z15OVACD8CD4 or Z18OVACD8CD4 and 20 μg of Pam3CSK4. One week after the last vaccination, Elispot assay was performed on spleen cells for detecting IFN-γ-producing OVA257-264-specific CD8 T cells (A) and OVA323-339-specific CD4 T cells (B). *, p<0.05; **, p<0.01.
Mice were vaccinated three times (wk0, wk2 and wk9) by s.c. injection (right flank) of 10 nmoles of Z13OVACD8CD4, Z15OVACD8CD4 or Z18OVACD8CD4 and 20 μg of MPLA. […]
Firstly, those constructs were tested with Hiltonol adjuvant (a TLR3 agonist). […] The number of peptide-specific IFN-γ-producing cells was calculated by subtracting the number of IFN-γ-secreting cells cultured without peptide to that obtained with cells cultured with peptide. […]

On to “KRYKNRVASRKSRAKFK (CPP Z15) [ZEBRA CPP truncation]”, for which, in the experiment on EG7-OVA tumor cells, the survival time entry was “only slight” and the tumor volume entry is “only slight”.
For KRYKNRVASRKSRAKFKQLLQHYREVAAAK [Z14], in the experiment on EG7-OVA tumor cells, the survival time result was “much more pronounced and highly significant”; the tumor volume result is “much more pronounced and highly significant”.
For the sequence “KRYKNRVASRKSRAKFKQLLQHYREVAAAKSSENDRLRLLLK [Z13]”, in the experiment on EG7-OVA tumor cells, the survival time entry was “much more pronounced and highly significant”; the tumor volume entry was “much more pronounced and highly significant”. The “CD4 immune response, combined with MPLA” value in experiment [1] (10 nmol ZxxOVACD8CD4 s.c. wk0, wk2, wk9 and 20 μg MPLA (TLR4 agonist)) was “most efficacious”.
As for REVAAAKSSENDRLRLLLK [Z18], in the experiment with EG7-OVA tumor cells, the survival time result is given as “only slight” and the tumor volume entry is “only slight”. Also, the “CD4 immune response, combined with Pam3CSK4” value in experiment [1] (10 nmol ZxxOVACD8CD4 s.c. wk0, wk2, wk9 and 20 μg Pam3CSK4 (TLR2 agonist)) was “highest CD8 and CD4 immune response”.

Source of the values: patent publication US20180133327A1, “Cell Penetrating Peptides and Complexes Comprising the Same” (Amal Therapeutics SA, priority 2015, published 2018).
